Experimental data as given in ChEMBL document CHEMBL3879894, “Novel pharmaceutical composition for prevention and/or treatment of attention deficit/hyperactivity disorder” (2012).

Experiments:
Rattus norvegicus [1] = experiment: Prevention of attention deficit/hyperactivity in po dosed spontaneously hypertensive stroke-prone rat assessed as prolongation of cumulative entry latency administered for 30 mins by passive avoidance response test; assay type: functional; conditions: 0.5 h, read-out: MED
Rattus norvegicus [2] = experiment: Prevention of attention deficit/hyperactivity in sc dosed spontaneously hypertensive stroke-prone rat assessed as prolongation of cumulative entry latency administered for 30 mins by passive avoidance response test; assay type: functional; conditions: 0.5 h, read-out: MED

| Structure (SMILES) | minimal effective dose (Rattus norvegicus [1]) [mg/kg] | minimal effective dose (Rattus norvegicus [2]) [mg/kg] |
| --- | --- | --- |
| Fc1ccc(Nc2nc(NCc3ncccn3)nc(Nc3ccc(F)cc3)n2)cc1 | 0.03 | – |
| Cl.Nc1nc(Nc2ccc(F)cc2)nc(N(Cc2ccnc(F)c2)c2ccccc2)n1 | 3 | – |
| COc1ccc(Nc2nc(NCc3ncccn3)nc(Nc3ccc(F)cc3)n2)cc1 | 0.3 | – |
| Fc1ccc(Nc2nc(NCc3ccncn3)nc(Nc3ccc(F)cc3)n2)cc1 | 0.03 | – |
| Fc1ccc(Nc2nc(NCc3ncccn3)nc(Nc3ccccc3)n2)cc1 | 0.1 | – |
| COC(=O)C(c1ccccc1)C1CCCCN1 (stereo unspecified) [METHYLPHENIDATE] | – | 0.1 |
